Converted amounts (≈) assume the structure as drawn.
What was measured:
[1] = test system: S. epidermidis ATCC 12228; assay: MIC tube-dilution assay; type: cell-based; conditions: Staphylococcus epidermidis, ATCC12228
Procedure: (§1) The MIC assays of the derivatives of compound 5 against S. epidermidis, S. aureus, MRSA and E. coli were performed by using the methods described previously by Wiegand et al. ([2008]). In brief, two-fold serial dilutions of the derivatives were prepared in tubes containing 4 mL MHB medium, yielding final concentrations from 200 to 0.78 μM. Bacterial cultures were grown overnight and adjusted so that the bacterial suspension turbidity was equivalent to a 0.5 McFarland standard (~1 × 10^8 CFU/mL) and further diluted to 1:200 into MHB medium. The contents in the tubes were mixed thoroughly and incubated at 37°C with shaking at 220 rpm for 16–20 h. The MIC endpoint was defined as the lowest concentration at which there was no visible growth in the tubes. The MBC values were assessed by plating 100 μL samples from each negative (no visible bacterial growth) culture tube from the MIC assays onto blank MHB agar plates. After incubation at 37°C for 24 h, the bacterial colonies on the plates were counted. The MBC was the concentration at which a 99.9% reduction of the original inoculum was observed (Pridmore et al., [2011]). In this assay, all the experiments were performed three times.

S. aureus ATCC 49230 = assay: MIC tube-dilution assay; type: cell-based; conditions: Staphylococcus aureus, ATCC49230
Procedure: as §1

E. coli ATCC 25922 = assay: MIC tube-dilution assay; type: cell-based, Escherichia coli; conditions: E. coli ATCC29522 (head), highest concentration used 200 μM
Procedure: as §1

YycG′ protein = molecular target: T1, YycG′ protein (Staphylococcus epidermidis, UniProt Q5HK19); assay: Inhibition of YycG′ autophosphorylation (Kinase-Glo Luminescent Kinase Assay); type: biochemical; conditions: 4 μM ATP; for inhibition of the enzymatic activity of YycG′ protein: 100 μM derivative, 2 μg YycG′ protein; for IC50: Kinase-Glo, 2 μg YycG′, read-out: IC50 (inhibition of autophosphorylation of recombinant YycG′)
T1 construct: made in house; host or cells: E. coli BL21(DE3)
T1 sequence (Q5HK19 384-602 limits assumed): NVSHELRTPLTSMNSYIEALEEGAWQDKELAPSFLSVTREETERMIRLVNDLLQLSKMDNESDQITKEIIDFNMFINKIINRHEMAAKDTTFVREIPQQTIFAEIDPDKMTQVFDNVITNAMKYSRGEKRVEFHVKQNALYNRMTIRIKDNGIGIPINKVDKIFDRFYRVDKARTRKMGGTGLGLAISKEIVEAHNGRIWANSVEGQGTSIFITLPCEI
Procedure: The construction of the recombinant plasmid pET28a-YycG′ (containing the HATPase_c and HisKA domains of YycG) has been previously described (Liu et al., [2014]). After being used to transform E. coli strain BL21(DE3), this recombinant plasmid was induced to express YycG′ protein by 0.4 mM isopropyl-1-thio-β-D-galactopyranoside at 21°C for 12 h. Then, the bacterial cells were disrupted by sonication and centrifuged, the supernatant was purified by Ni–NTA agarose (Qiagen, Los Angeles, CA, USA). The inhibitory activities of the compound 5 derivatives on the ATPase activity of the YycG′ protein were measured using the Kinase-Glo™ Luminescent Kinase Assay (Promega, Madison, WI, USA). Briefly, 2 μg purified YycG′ protein was pre-incubated with a series of dilutions of the derivatives in reaction buffer [40 mM Tris (pH 7.5), 20 mM MgCl2 and 0.1 mg/ml BSA] at room temperature for 30 min, 4 μM ATP was added and incubated for 30 min at room temperature, then Kinase-Glo™ Reagent was added to detect the remaining amount of ATP, as reflected by luminescence intensity (RLU). In parallel, YycG′ protein with no addition of the derivatives was used as the control and ATP only was used as a blank. The rate of inhibition of protein phosphorylation (Rp) by the derivatives was calculated by the following equation: Rp = RLU(YycG^′+derivative+ATP+Kinase−Glo™)−RLU(YycG^′+ATP+Kinase−Glo™)/RLU(ATP+Kinase−Glo™)−RLU(YycG^′+ATP+Kinase−Glo™) × 100 IC50 (the concentration resulting in 50% inhibition of YycG′ protein autophosphorylation) was obtained by using Origin v7.0 software (OriginLab, Northampton, USA).

Cytotoxicity MTT assay = type: cell-based; conditions: African green monkey, Vero cells, highest concentration tested 200 μM
Procedure: A Cell Proliferation Kit I (MTT; Roche, Indianapolis, USA) was used to detect the cytotoxicity of the derivatives against Vero cells. Vero cells were added to 96-well microtiter plates at a concentration of 5 × 10^4 cells/well in 100 μL of culture medium. After 24 h, culture medium was replaced by 100 μL serial dilutions of the derivatives (0.78–100 μM) and the cells were incubated for 4 h in an atmosphere of 5% CO2, then 10 μL of the MTT stock solution was added to each well and the plate returned to the 37°C incubator for 4 h. Subsequent to the incubation, the purple formazan salts were dissolved in DMSO, and the absorbance of each well was measured at wavelengths of 595 nm (test) and 655 nm (reference). Cells treated with the solvent (0.1% DMSO) were used as a blank control. The concentration of the derivatives that produced a 50% cytotoxicity effect on Vero cells (CC50) was calculated using Origin v8.0 software (Origin Lab, Northampton, USA).

[2] = Erythrocyte hemolysis assay; type: cell-based; conditions: human, erythrocytes (5% suspension), 37°C; for hemolysis at 1 h, 200 µM: at 200 μM; for hemolysis at 1 h: at MIC (against S epidermidis ATCC 35984)
Procedure: Hemolytic activities of the derivatives were measured on healthy human erythrocytes. A pure suspension of erythrocytes was obtained by washing a blood sample with sterile 0.9% NaCl saline solution. Erythrocytes were resuspended in normal saline to give a 5% solution, then treated with MIC, 4 × MIC or 200 μM of the derivatives for 1 h at 37°C in 96-well microtiter plates. After the incubation and centrifugation at 1,000 g for 10 min, supernatants were transferred to another sterile plate and the absorbance at 570 nm was measured on a spectrophotometric microplate reader. A positive control (100% hemolysis) and a negative control (0% hemolysis) were achieved by incubating with 1% Triton-X 100 and 0.1% DMSO, respectively. Each assay was performed in triplicate and repeated three times.

[3] = test system: S. epidermidis ATCC 35984 mature biofilms; assay: Cell viability in mature (24 h) biofilms by CLSM with Live/Dead staining; type: cell-based, Staphylococcus epidermidis; conditions: 4 × MIC, 16 h, 24 h mature biofilm; for PI fluorescence quantity (dead cells) / SYTO9 fluorescence quantity (viable cells): Image J
Procedure: The effect of the derivatives on cell viability in mature biofilms (24 h old) was determined using the Live/Dead Bacterial Viability method (Live/Dead BacLight, Molecular Probes, USA). […] The mature biofilms were stained with SYTO 9 and propidium iodide at room temperature for 15 min, following gentle washing of the dishes with normal saline, and were observed under a Leica TCS SP5 CLSM with a 63 × 1.4-NA oil-immersion objective. Further, image analysis was performed using IMARIS 7.0.0 software (Bitplane). The fluorescence quantities of biofilm were determined using Image J software. This assay was performed in triplicate and similar results were obtained.

[4] = test system: S. epidermidis ATCC 35984; assay: MIC and MBC tube-dilution assay; type: cell-based; conditions: Staphylococcus epidermidis; for MBC: ATCC35984, 99.9% reduction of inoculum; for MIC: ATCC35984, MHB, 16–20 h
Procedure: as §1

[5] = test system: S. epidermidis ATCC 35984 mature biofilms; parameters: method as in Liu et al., 2014; conditions: vancomycin 128 μg/mL; ref Liu et al., 2014; cited from earlier work
[6] = test system: S. epidermidis ATCC 35984; assay: Time-kill assay against fast-growing S. epidermidis; type: cell-based, Staphylococcus epidermidis; conditions: 4 × MIC
Procedure: Suspensions of S. epidermidis (1 × 10^7 CFU/mL) were prepared and separately treated with the derivatives of compound 5 or vancomycin at concentrations of 4 × MIC in fresh MHB. Time-kill experiments were performed at 37°C with shaking at 220 rpm under aerobic conditions. Aliquots (1 mL) were removed from the culture medium at different time points (0, 1, 3, 5, 8, and 24 h), serially diluted and 100 μL of each of the dilutions plated out onto tryptic soy agar. After incubating at 37°C for 24 h, emergent bacterial colonies were counted, and the activity of the derivatives against fast-growing S. epidermidis cells was determined by plotting log10 colony counts (CFU/mL) against time. Bactericidal activity was defined as a 3-log10 decrease in CFU/mL. This assay was performed in triplicate and similar results were obtained.

[7] = Escherichia coli, ATCC 25922 / ATCC 29522

SMILES | MIC [1] [µM] | MIC (S. aureus ATCC 49230) [µM] | MIC (E. coli ATCC 25922) [µM] | MIC (E. coli ATCC 25922; [7]) [µM] | inhibition of the enzymatic activity of YycG′ protein (YycG′ protein) [%] | IC50 (YycG′ protein) [µM] | CC50 at 4 h (Cytotoxicity MTT assay) [µM] | hemolysis at 1 h, 200 µM [2] [%] | hemolysis at 1 h [2] [%] | PI/Total (reduction of the proportion of viable cells in mature biofilms) [3] [%] | PI fluorescence quantity (dead cells) [3] | SYTO9 fluorescence quantity (viable cells) [3] | MBC [4] [µM] | MIC [4] [µM] | reduction of living cells in mature biofilm [5] [%] | time required to achieve a bactericidal effect ([6]; bactericidal = 3-log10 decrease in CFU/mL) [h] | reduction in CFU/mL ([6]; within/after 1 h, inoculum ~1 × 10^7 CFU/mL, MHB)
O=C(O)c1cccc(-c2ccc(C=c3sc4n(c3=O)C(c3ccc(Cl)cc3)C=C(c3ccccc3)N=4)o2)c1 (centres unmarked) [H5-25, 3-{5-[5-(4-chloro-phenyl)-3-oxo-7-phenyl-5H-thiazolo [3,2-a]pyrimidin-2-ylidenemethyl]-furan-2-yl}-benzoic acid] | 1.56 (≈ 0.841 µg/mL) | 1.56 (≈ 0.841 µg/mL) | >200 | > 200 | 51.42 | 80.2 | > 200 | 0.39 ± 0.09 | 0.27 ± 0.01 | 43.80 | 47.687 ± 4.77 | 61.188 ± 5.49 | 50 (≈ 27 µg/mL) | 1.56 (≈ 0.841 µg/mL) | – | – | –
CCOC(=O)C1=C(c2ccccc2)N=c2s/c(=C\c3ccc(-c4cccc(C(=O)O)c4)o3)c(=O)n2C1c1ccc2c(c1)OCO2 (centres unmarked) [Compound 5, {5-benzo [1,3]dioxol-5-yl-2-[5-(3-carboxy-phenyl)-furan-2-ylmethylene]-3-oxo-7-phenyl-2,3-dihydro-5H-thiazolo [3,2-a]pyrimidine-6-carboxylic} acid ethyl ester] | 6.25 (≈ 3.88 µg/mL) | 6.25 (≈ 3.88 µg/mL) | – | > 200 | – | – | > 200 | 0.51 ± 0.06 | 0.31 ± 0.16 | – | – | – | 25 (≈ 15.5 µg/mL) | 6.25 (≈ 3.88 µg/mL) | – | – | –
COc1ccc(C2C=C(c3ccccc3)N=c3sc(=Cc4ccc(-c5cccc(C(=O)O)c5)o4)c(=O)n32)cc1 (centres unmarked) [H5-24, 3-{5-[5-(4-methoxy-phenyl)-3-oxo-7-phenyl-5H-thiazolo[3,2-a]pyrimidin-2-ylidenemethyl]-furan-2-yl}-benzoic acid] | 1.56 (≈ 0.834 µg/mL) | 1.56 (≈ 0.834 µg/mL) | >200 | > 200 | 49.92 | 82.2 | > 200 | 0.32 ± 0.05 | 0.17 ± 0.11 | 77.5 | 43.242 ± 5.65 | 12.554 ± 4.23 | 50 (≈ 26.7 µg/mL) | 1.56 (≈ 0.834 µg/mL) | – | – | –
CCOC(=O)C1=C(c2ccccc2)N=c2sc(=Cc3ccc(-c4cccc(C(=O)O)c4)o3)c(=O)n2C1c1ccc(Cl)cc1 (centres unmarked) [H5-23, 2-{5-(3-carboxy-phenyl)-furan-2-ylmethylene]-5-(4-chloro-phenyl)-3-oxo-7-phenyl-2,3-di-hydro-5H-thiazolo[3,2-a]pyrimidine-6-carboxylic acid ethyl ester] | 1.56 (≈ 0.953 µg/mL) | 1.56 (≈ 0.953 µg/mL) | >200 | > 200 | 64.78 | 77.2 | > 200 | 0.27 ± 0.01 | 0.27 ± 0.35 | 85.7 | 61.928 ± 5.05 | 10.333 ± 4.39 | 25 (≈ 15.3 µg/mL) | 1.56 (≈ 0.953 µg/mL) | – | – | –
CN[C@H](CC(C)C)C(=O)N[C@H]1C(=O)N[C@@H](CC(N)=O)C(=O)N[C@H]2C(=O)N[C@H]3C(=O)N[C@H](C(=O)N[C@H](C(=O)O)c4cc(O)cc(O)c4-c4cc3ccc4O)[C@H](O)c3ccc(c(Cl)c3)Oc3cc2cc(c3O[C@@H]2O[C@H](CO)[C@@H](O)[C@H](O)[C@H]2O[C@H]2C[C@](C)(N)[C@H](O)[C@H](C)O2)Oc2ccc(cc2Cl)[C@H]1O [vancomycin, reference compound] | – | – | – | – | – | – | – | – | – | – | – | – | – | – | 11.4 | > 5 | ~ 1 log

Reference: PMC5374206, “Anti-bacterial and Anti-biofilm Evaluation of Thiazolopyrimidinone Derivatives Targeting the Histidine Kinase YycG Protein of Staphylococcus epidermidis” (Frontiers in Microbiology, 2017)
